Experimental data published in US20120270237A9, “METHODS FOR THE IDENTIFICATION OF KINASE INTERACTING MOLECULES AND FOR THE PURIFICATION OF KINASE PROTEINS” (Cellzone AG, priority 2009, published 2012).

Key:
[1] = target: IRAK1 (Homo sapiens, UniProt P51617); assay: Competition binding assay in HL60 cell lysate, antibody detection; design: endogenous in cells; host or cells: HL60; settings: dose response curve, anti-IRAK1 antibody
Procedure: (§1) The experiment was performed as described in example 7. The test compound (or DMSO as solvent control) and diluted cell lysate were added to the affinity matrix and incubated for two hours at 4° C. After washing, captured proteins were eluted with SDS-containing sample buffer. After spotting of eluate samples onto Nitrocellulose membranes IRAK1 was detected with an anti-IRAK1 antibody and IRAK4 with anti-IRAK4 antibody followed by incubation with a secondary fluorescently labeled detection antibody.
(§2) Various concentrations of test compounds were added to HL60 lysate samples and allowed to bind to the proteins contained in the lysate sample. At the same time the affinity matrix with the immobilized compound (FIG. 3, CZC31326) was added as well in order to capture proteins not bound to the test compound. After the incubation time the beads with captured proteins were separated from the lysate. Bound proteins were then eluted and the presence of IRAK1 and IRAK4 was detected and quantitavely determined using specific antibodies and the Odyssey Infrared Detection system. […]
(§3) The kinases in the eluates were detected and quantified by spotting on Nitrocellulose membranes and using a first antibody directed against the kinase of interest and a fluorescently labeled secondary antibody (anti-mouse or anti-rabbit IRDye™ antibodies from Rockland). […]

[2] = target: T1, IRAK4 (Homo sapiens, UniProt Q9NWZ3); assay: as above; design: endogenous in cells; host or cells: HL60; settings: dose response curve, anti-IRAK4 antibody
T1 sequence (Q9NWZ3 1-460): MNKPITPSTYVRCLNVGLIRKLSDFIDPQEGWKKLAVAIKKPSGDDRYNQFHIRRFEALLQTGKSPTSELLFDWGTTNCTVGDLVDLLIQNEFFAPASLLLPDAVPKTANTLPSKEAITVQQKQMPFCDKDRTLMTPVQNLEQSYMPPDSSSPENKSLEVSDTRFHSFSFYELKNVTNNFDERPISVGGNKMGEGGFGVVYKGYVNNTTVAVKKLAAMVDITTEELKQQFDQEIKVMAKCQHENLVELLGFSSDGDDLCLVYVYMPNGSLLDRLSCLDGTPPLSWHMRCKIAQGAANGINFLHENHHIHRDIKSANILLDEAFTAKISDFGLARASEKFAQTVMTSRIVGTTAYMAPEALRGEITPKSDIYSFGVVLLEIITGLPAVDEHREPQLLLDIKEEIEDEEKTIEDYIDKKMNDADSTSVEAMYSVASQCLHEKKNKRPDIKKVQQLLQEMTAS
Procedure: as §1, §2, §3

IRAK1, sequence (P51617 whole entry): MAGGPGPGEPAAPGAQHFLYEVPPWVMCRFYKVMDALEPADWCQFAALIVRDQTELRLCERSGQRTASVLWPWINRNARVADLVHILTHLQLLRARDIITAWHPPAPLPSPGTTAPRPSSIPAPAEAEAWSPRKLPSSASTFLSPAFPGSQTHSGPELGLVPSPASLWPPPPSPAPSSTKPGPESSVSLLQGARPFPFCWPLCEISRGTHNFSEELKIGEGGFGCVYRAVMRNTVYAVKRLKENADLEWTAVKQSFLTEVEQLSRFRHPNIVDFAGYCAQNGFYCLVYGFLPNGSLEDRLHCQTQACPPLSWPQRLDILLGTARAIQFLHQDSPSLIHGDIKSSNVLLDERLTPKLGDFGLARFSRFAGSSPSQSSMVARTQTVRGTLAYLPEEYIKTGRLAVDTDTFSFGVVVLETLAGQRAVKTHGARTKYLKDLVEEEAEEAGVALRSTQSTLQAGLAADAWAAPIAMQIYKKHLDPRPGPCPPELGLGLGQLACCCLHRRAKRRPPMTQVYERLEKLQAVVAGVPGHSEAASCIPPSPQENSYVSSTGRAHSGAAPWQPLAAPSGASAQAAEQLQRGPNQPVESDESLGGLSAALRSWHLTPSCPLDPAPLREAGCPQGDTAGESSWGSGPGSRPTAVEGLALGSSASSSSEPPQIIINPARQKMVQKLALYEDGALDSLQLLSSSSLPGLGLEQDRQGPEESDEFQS

CS(=O)(=O)Nc1ccccc1Nc1nc(Nc2cccc(OCCN)c2)ncc1Cl [CZC31326, N-(2-(2-(3-(2-aminoethoxy)phenylamino)-5-chloropyrimidin-4-ylamino)phenyl)methanesulfonamide]
IC50 [1]: 150 nM
IC50 [2]: 40 nM
